# Assay results reported in patent US8648116B2, “Derivatives of N-(arylamino) sulfonamides including polymorphs as inhibitors of MEK as well as compositions, methods of use and methods for preparing the same” (Ardea Biosciences, Inc., priority 2005, dated 2014).
# Like-named read-outs stand apart in the source and are kept apart here.
# How the values were obtained:
# SK Mel28 melanoma cells = test: Anchorage-dependent growth inhibition (ATP content, 48 hr); type: cell-based, human; details: SK Mel 28, separate study
# A375 cells = test: Evaluation of cell cycle arrest (propidium iodide, flow cytometry); type: cell-based, human; details: 24 hr
# Method: A375 cells were plated in 96-well microplates at 10,000 cells/200 μl/well. […] After another 24 hr, cells were trypsinized, fixed in 200 μl Prefer (Anatech, Battle Creek, Mich.), and stored at 4° C. overnight. Cells were then rinsed in PBS, permeabilized and stained in 0.1% Triton X-100, 200 μg/ml DNase-free RNase, and […] propidium iodide (Molecular Probes, Sunnyvale, Calif.), and analyzed on the Guava PCA-96 (Guava Technologies, Foster City, Calif.). Data were analyzed using ModFit LT (version 3.0, Verity, Topsham, Me.).
# human tumor cell lines = test: In vitro cancer screen (SRB; GI50, TGI, LC50); details: for CC50: read-out: LC50
# pERK in brain = test: MEK inhibition (pERK, Western blot) against plasma concentration, brain; type: in vivo, nu/nu mice
# Method: Human tumors were implanted in nu/nu mice. Compound A was administered orally for 14 days once tumors were approximately 100 mm^3 in size. Tumor growth inhibition (TGI) was determined after 14 days of treatment as the reduction in the size of tumors in treated groups versus vehicle controls. The time to endpoint (TTE) was calculated as the time for the tumor to reach the specified endpoint volume or the last day of the study, whichever came first. Treatment outcome was determined from percent tumor growth delay (% TGD), defined as the percent increase in median TTE of treated versus vehicle-treated control mice. Animals were also monitored for regression responses. Levels of pERK in tumors and brain were determined by Western blots and correlated with plasma levels of Compound A for the pharmacodynamic/pharmacokinetic study. A number of tumor models were evaluated with different doses and dosing regimens. […] The effect of different dosing regimens was evaluated in A375 xenografts.
# Female nu/nu mice implanted with Colo205 tumor cells were given a single dose of vehicle or Compound A at 2.5, 5, 10, or 25 mg/kg. Compound levels were determined in plasma samples and pERK levels were determined in tumor and brain samples collected at 2, 6, 12, and 24 hr post-dose. […]
# [1] = A549/ATCC (Non-Small Cell Lung Cancer)
# [2] = EKVX (Non-Small Cell Lung Cancer)
# [3] = HOP-62 (Non-Small Cell Lung Cancer)
# [4] = HOP-92 (Non-Small Cell Lung Cancer)
# [5] = NCI-H23 (Non-Small Cell Lung Cancer)
# [6] = NCI-H226 (Non-Small Cell Lung Cancer)
# [7] = NCI-H322M (Non-Small Cell Lung Cancer)
# [8] = NCI-H460 (Non-Small Cell Lung Cancer)
# [9] = NCI-H522 (Non-Small Cell Lung Cancer)
smiles,measurement,setting,value
COc1cc(F)c(F)c(Nc2ccc(I)cc2F)c1NS(=O)(=O)C1(C[C@H](O)CO)CC1,GI50,SK Mel28 melanoma cells,105 nM
same,effect on cell cycle progression,A375 cells,arrest in the G1 phase of the cell cycle
same,GI50,human tumor cell lines; 786-0 (Renal Cancer),5130 nM
same,TGI,human tumor cell lines; 786-0 (Renal Cancer),23.442 µM
same,GI50,human tumor cell lines; A498 (Renal Cancer),191 nM
same,TGI,human tumor cell lines; A498 (Renal Cancer),4.169 µM
same,GI50,human tumor cell lines; [1],589 nM
same,TGI,human tumor cell lines; [1],64.565 µM
same,GI50,human tumor cell lines; ACHN (Renal Cancer),275 nM
same,TGI,human tumor cell lines; ACHN (Renal Cancer),21.878 µM
same,GI50,human tumor cell lines; BT-549 (Breast Cancer),5750 nM
same,TGI,human tumor cell lines; BT-549 (Breast Cancer),20.893 µM
same,GI50,human tumor cell lines; CAKI-1 (Renal Cancer),389 nM
same,TGI,human tumor cell lines; CAKI-1 (Renal Cancer),26.915 µM
same,GI50,human tumor cell lines; CCRF-CEM (Leukemia),17400 nM
same,TGI,human tumor cell lines; CCRF-CEM (Leukemia),60.256 µM
same,GI50,human tumor cell lines; DU-145 (Prostate Cancer),2140 nM
same,TGI,human tumor cell lines; DU-145 (Prostate Cancer),22.387 µM
same,GI50,human tumor cell lines; [2],214 nM
same,TGI,human tumor cell lines; [2],13.804 µM
same,GI50,human tumor cell lines; HCC-2998 (Colon Cancer),10 nM
same,TGI,human tumor cell lines; HCC-2998 (Colon Cancer),0.035 µM
same,GI50,human tumor cell lines; HCT-15 (Colon Cancer),603 nM
same,TGI,human tumor cell lines; HCT-15 (Colon Cancer),16.982 µM
same,GI50,human tumor cell lines; HCT-116 (Colon Cancer),195 nM
same,TGI,human tumor cell lines; HCT-116 (Colon Cancer),12.589 µM
same,GI50,human tumor cell lines; HL-60(TB) (Leukemia),10 nM
same,TGI,human tumor cell lines; HL-60(TB) (Leukemia),100.000 µM
same,GI50,human tumor cell lines; [3],69 nM
same,TGI,human tumor cell lines; [3],12.589 µM
same,GI50,human tumor cell lines; [4],47 nM
same,TGI,human tumor cell lines; [4],0.324 µM
same,GI50,human tumor cell lines; HS 578T (Breast Cancer),617 nM
same,TGI,human tumor cell lines; HS 578T (Breast Cancer),13.490 µM
same,GI50,human tumor cell lines; HT29 (Colon Cancer),26 nM
same,TGI,human tumor cell lines; HT29 (Colon Cancer),3.090 µM
same,GI50,human tumor cell lines; IGROV1 (Ovarian Cancer),18 nM
same,TGI,human tumor cell lines; IGROV1 (Ovarian Cancer),0.295 µM
same,GI50,human tumor cell lines; K-562 (Leukemia),6610 nM
same,TGI,human tumor cell lines; K-562 (Leukemia),100.000 µM
same,GI50,human tumor cell lines; KM12 (Colon Cancer),229 nM
same,TGI,human tumor cell lines; KM12 (Colon Cancer),13.490 µM
same,GI50,human tumor cell lines; LOX IMVI (Melanoma),195 nM
same,TGI,human tumor cell lines; LOX IMVI (Melanoma),10.715 µM
same,GI50,human tumor cell lines; M14 (Melanoma),15 nM
same,TGI,human tumor cell lines; M14 (Melanoma),0.166 µM
same,GI50,human tumor cell lines; MALME-3M (Melanoma),10 nM
same,TGI,human tumor cell lines; MALME-3M (Melanoma),0.014 µM
same,GI50,human tumor cell lines; MCF7 (Breast Cancer),11000 nM
same,TGI,human tumor cell lines; MCF7 (Breast Cancer),30.903 µM
same,GI50,human tumor cell lines; MDA-MB-231 (Breast Cancer),69 nM
same,TGI,human tumor cell lines; MDA-MB-231 (Breast Cancer),10.471 µM
same,GI50,human tumor cell lines; MDA-MB-435 (Breast Cancer),35 nM
same,TGI,human tumor cell lines; MDA-MB-435 (Breast Cancer),12.303 µM
same,GI50,human tumor cell lines; MDA-MB-468 (Breast Cancer),19 nM
same,TGI,human tumor cell lines; MDA-MB-468 (Breast Cancer),10.233 µM
same,GI50,human tumor cell lines; MOLT-4 (Leukemia),11000 nM
same,TGI,human tumor cell lines; MOLT-4 (Leukemia),69.183 µM
same,GI50,human tumor cell lines; [5],56 nM
same,TGI,human tumor cell lines; [5],2.884 µM
same,GI50,human tumor cell lines; [6],3310 nM
same,TGI,human tumor cell lines; [6],24.547 µM
same,GI50,human tumor cell lines; [7],162 nM
same,TGI,human tumor cell lines; [7],15.488 µM
same,GI50,human tumor cell lines; [8],3630 nM
same,TGI,human tumor cell lines; [8],19.498 µM
same,GI50,human tumor cell lines; [9],5250 nM
same,TGI,human tumor cell lines; [9],29.512 µM
same,GI50,human tumor cell lines; NCI/ADR-RES (Breast Cancer),3470 nM
same,TGI,human tumor cell lines; NCI/ADR-RES (Breast Cancer),25.704 µM
same,GI50,human tumor cell lines; OVCAR-3 (Ovarian Cancer),2510 nM
same,TGI,human tumor cell lines; OVCAR-3 (Ovarian Cancer),17.783 µM
same,GI50,human tumor cell lines; OVCAR-4 (Ovarian Cancer),562 nM
same,TGI,human tumor cell lines; OVCAR-4 (Ovarian Cancer),16.218 µM
same,GI50,human tumor cell lines; OVCAR-5 (Ovarian Cancer),17 nM
same,TGI,human tumor cell lines; OVCAR-5 (Ovarian Cancer),12.023 µM
same,GI50,human tumor cell lines; PC-3 (Prostate Cancer),8130 nM
same,TGI,human tumor cell lines; PC-3 (Prostate Cancer),37.154 µM
same,GI50,human tumor cell lines; RPMI-8226 (Leukemia),26900 nM
same,TGI,human tumor cell lines; RPMI-8226 (Leukemia),100.000 µM
same,GI50,human tumor cell lines; SF-268 (CNS Cancer),2570 nM
same,TGI,human tumor cell lines; SF-268 (CNS Cancer),25.704 µM
same,GI50,human tumor cell lines; SF-295 (CNS Cancer),9330 nM
same,TGI,human tumor cell lines; SF-295 (CNS Cancer),23.442 µM
same,GI50,human tumor cell lines; SF-539 (CNS Cancer),1510 nM
same,TGI,human tumor cell lines; SF-539 (CNS Cancer),20.417 µM
same,GI50,human tumor cell lines; SK-MEL-5 (Melanoma),62 nM
same,TGI,human tumor cell lines; SK-MEL-5 (Melanoma),13.804 µM
same,GI50,human tumor cell lines; SK-MEL-28 (Melanoma),28 nM
same,TGI,human tumor cell lines; SK-MEL-28 (Melanoma),0.214 µM
same,GI50,human tumor cell lines; SK-OV-3 (Ovarian Cancer),12900 nM
same,TGI,human tumor cell lines; SK-OV-3 (Ovarian Cancer),41.687 µM
same,GI50,human tumor cell lines; SN12C (Renal Cancer),851 nM
same,TGI,human tumor cell lines; SN12C (Renal Cancer),18.621 µM
same,GI50,human tumor cell lines; SNB-19 (CNS Cancer),251 nM
same,TGI,human tumor cell lines; SNB-19 (CNS Cancer),24.547 µM
same,GI50,human tumor cell lines; SNB-75 (CNS Cancer),302 nM
same,TGI,human tumor cell lines; SNB-75 (CNS Cancer),4.467 µM
same,GI50,human tumor cell lines; SR (Leukemia),38000 nM
same,TGI,human tumor cell lines; SR (Leukemia),100.000 µM
same,GI50,human tumor cell lines; SW-620 (Colon Cancer),39 nM
same,TGI,human tumor cell lines; SW-620 (Colon Cancer),12.589 µM
same,GI50,human tumor cell lines; T-47D (Breast Cancer),4900 nM
same,TGI,human tumor cell lines; T-47D (Breast Cancer),38.019 µM
same,GI50,human tumor cell lines; TK-10 (Renal Cancer),224 nM
same,TGI,human tumor cell lines; TK-10 (Renal Cancer),23.442 µM
same,GI50,human tumor cell lines; U251 (CNS Cancer),891 nM
same,TGI,human tumor cell lines; U251 (CNS Cancer),17.378 µM
same,GI50,human tumor cell lines; UACC-62 (Melanoma),14 nM
same,TGI,human tumor cell lines; UACC-62 (Melanoma),0.170 µM
same,GI50,human tumor cell lines; UACC-257 (Melanoma),20 nM
same,TGI,human tumor cell lines; UACC-257 (Melanoma),10.233 µM
same,GI50,human tumor cell lines; UO-31 (Renal Cancer),158 nM
same,TGI,human tumor cell lines; UO-31 (Renal Cancer),11.482 µM
same,CC50,human tumor cell lines; HCT-15 (Colon Cancer),60.3 µM
same,CC50,human tumor cell lines; HT29 (Colon Cancer),29.5 µM
same,CC50,human tumor cell lines; M14 (Melanoma),29.5 µM
same,CC50,human tumor cell lines; MDA-MB-435 (Breast Cancer),41.7 µM
same,CC50,human tumor cell lines; SF-539 (CNS Cancer),60.3 µM
same,CC50,human tumor cell lines; SK-MEL-28 (Melanoma),22.4 µM
same,CC50,human tumor cell lines; UACC-62 (Melanoma),20.9 µM
COc1cc(F)c(F)c(Nc2ccc(I)cc2F)c1NS(=O)(=O)C1(C[C@H](O)CO)CC1 [Compound A],pERK formation in brain,"pERK in brain; Colo205 xenograft mice, pharmacodynamic/pharmacokinetic study",minimal inhibition
same,EC50,"pERK in brain; Mus musculus, plasma concentration, Colo205-bearing nu/nu mice, single dose 2.5-25 mg/kg",> 5 µM
